Data reported in PMC5011342, “A high throughput drug screening assay to identify compounds that promote oligodendrocyte differentiation using acutely dissociated and purified oligodendrocyte precursor cells” (BMC Research Notes, 2016).
Like-named read-outs stand apart in the source and are kept apart here.

What was measured:
expanded OPCs = test: cells; conditions: for viability at 0.1 µM / viability at 1 µM / viability at 10 µM: Rattus norvegicus, 72 h; for 0.1 µM (% DMSO) / 1 µM (% DMSO) / 10 µM (% DMSO): alamarBlue viability of expanded OPCs, relative to DMSO control; for 0.1 µM (% DMSO): compound at 0.1 µM; for 1 µM (% DMSO): compound at 1 µM; for 10 µM (% DMSO): compound at 10 µM
In short: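 Expanded OPCs seeded at 10,000 cells/well in differentiation media, then exposed to NCC library compounds at 10, 1 and 0.1 µM (quadruplicate, 0.1% DMSO) for three days. Viability read as alamarBlue fluorescence (560/590 nm) after 4 h at 37 °C; tunicamycin 5 ng/ml served as toxicity control.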

[1] = tested on: acutely dissociated and purified rat OPCs; test: Acute OL differentiation assay (MBP expression/cell, immunofluorescent image quantification); type: cell-based; conditions: for activation at 2 µM / activation at 10 µM / activation at 0.4 µM / activation at 0.08 µM: sheet "All OLga data"; for activation at 0.08 µM: 0.08 uM test compound, read-out: OL differentiation, 0.08 uM (% Quet)
In short: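 Oligodendrocyte precursor cells were enriched from P6-P7 Sprague–Dawley rat brains by immunopanning (RAN-2 and GalC depletion, O4 selection), plated at 5000 cells/well in serum-free, mitogen-free differentiation media on PDL/laminin 96-well view plates, centrifuged at 200×g, and pre-incubated 1–2 h before test compounds were added in quadruplicate. On DIV4, cells were fixed, stained for MBP and DAPI, imaged automatically, and MBP expression per cell was quantified.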

[2] = read-out: 0.1 µM (% DMSO), alamarBlue viability of expanded OPCs, compound at 0.1 µM, sheet All Tox data
[3] = read-out: 1 µM (% DMSO), alamarBlue viability of expanded OPCs, compound at 1 µM, sheet All Tox data
[4] = read-out: 10 µM (% DMSO), alamarBlue viability of expanded OPCs, compound at 10 µM, sheet All Tox data
[5] = Rattus norvegicus, 2 uM test compound, relative to quetiapine, read-out: OL differentiation, 2 uM (% Quet)
[6] = Rattus norvegicus, 10 uM test compound, relative to quetiapine, read-out: OL differentiation, 10 uM (% Quet)
[7] = read-out: 0.1 µM (% DMSO), alamarBlue viability, NCC library compound at 0.1 µM, sheet "All Tox data"
[8] = read-out: 1 µM (% DMSO), alamarBlue viability, NCC library compound at 1 µM, sheet "All Tox data"
[9] = read-out: 10 µM (% DMSO), alamarBlue viability, NCC library compound at 10 µM, sheet "All Tox data"
[10] = Rattus norvegicus, test compound at 2 uM, NCC library screen, relative to quetiapine, read-out: 2 uM (% Quet)
[11] = Rattus norvegicus, test compound at 10 uM, NCC library screen, relative to quetiapine, read-out: 10 uM (% Quet)
[12] = Rattus norvegicus, test compound at 2 uM, MBP expression relative to quetiapine, NCC library screen, read-out: 2 uM (% Quet)
[13] = Rattus norvegicus, test compound at 10 uM, MBP expression relative to quetiapine, NCC library screen, read-out: 10 uM (% Quet)
[14] = Rattus norvegicus, 0.4 uM test compound, relative to quetiapine, read-out: OL differentiation, 0.4 uM (% Quet)
[15] = Rattus norvegicus, relative to quetiapine
[16] = Rattus norvegicus, test compound at 0.4 uM, NCC library screen, relative to quetiapine, read-out: 0.4 uM (% Quet)

Compound | viability at 0.1 µM (expanded OPCs; [2]) | viability at 1 µM (expanded OPCs; [3]) | viability at 10 µM (expanded OPCs; [4]) | activation at 2 µM [1, 5] | activation at 10 µM [1, 6] | viability at 0.1 µM (expanded OPCs; [7]) | viability at 1 µM (expanded OPCs; [8]) | viability at 10 µM (expanded OPCs; [9]) | activation at 2 µM [1, 10] | activation at 10 µM [1, 11] | other results
Cc1ccsc1C(=CCCN1CCC[C@@H](C(=O)O)C1)c1sccc1C [Tiagabine] | 99.9% | 89.2% | 92.7% | -1.8% | 8.7% | – | – | – | – | – | –
C#C[C@]1(O)CC[C@H]2[C@@H]3[C@H](C)CC4=C(CCC(=O)C4)[C@H]3CC[C@@]21C [Tibolone] | – | – | – | – | – | 84.8% | 85.4% | 77.4% | 6.5% | -6.7% | –
CC(C)(C)NC[C@H](O)COc1nsnc1N1CCOCC1 [Timolol] | – | – | – | – | – | 99.5% | 89.9% | 92.8% | -5.6% | -24.3% | –
CCS(=O)(=O)CCn1c([N+](=O)[O-])cnc1C [Tinidazole] | – | – | – | – | – | 91.7% | 95.3% | 97.1% | -10.8% | 10.4% | –
Clc1ccc2nsnc2c1NC1=NCCN1 [Tizanidine] | – | – | – | – | – | – | – | – | – | – | 0.1 µM (% DMSO) (expanded OPCs): 92.8 % DMSO; 1 µM (% DMSO) (expanded OPCs): 97.3 % DMSO; 10 µM (% DMSO) (expanded OPCs): 87.9 % DMSO; activation at 2 µM [1, 12]: 13.7%; activation at 10 µM [1, 13]: -4.2%
Cc1cccc(C)c1NC(=O)C(C)N (centres unmarked) [Tocainide] | 94.9% | 96.2% | 98% | 1.2% | -23.2% | – | – | – | – | – | –
Cc1ccc(S(=O)(=O)NC(=O)NN2CCCCCC2)cc1 [Tolazamide] | – | – | – | – | – | – | – | – | -14.2% | -2% | 0.1 µM (% DMSO) (expanded OPCs): 100.3 % DMSO; 1 µM (% DMSO) (expanded OPCs): 95.8 % DMSO; 10 µM (% DMSO) (expanded OPCs): 99.9 % DMSO
c1ccc(CC2=NCCN2)cc1 [Tolazoline] | – | – | – | – | – | – | – | – | – | – | 0.1 µM (% DMSO) (expanded OPCs): 90.4 % DMSO; 1 µM (% DMSO) (expanded OPCs): 94.2 % DMSO; 10 µM (% DMSO) (expanded OPCs): 86.6 % DMSO; activation at 2 µM [1, 12]: -2.4%; activation at 10 µM [1, 13]: -19.3%
CCCCNC(=O)NS(=O)(=O)c1ccc(C)cc1 [Tolbutamide] | – | – | – | – | – | 105% | 107% | 117% | -1.3% | 20.2% | –
Cc1ccc(O)c([C@H](CCN(C(C)C)C(C)C)c2ccccc2)c1 [Tolterodine] | 88.4% | 87.8% | 46.5% | -0.9% | – | – | – | – | – | – | activation at 0.4 µM [1, 14]: -6.8%
CC1(C)O[C@@H]2[C@@H](CO[C@@]3(COS(N)(=O)=O)OC(C)(C)O[C@@H]23)O1 [Topiramate] | 94% | 93.5% | 86.5% | 8.5% | 0.05% | – | – | – | – | – | –
CC[C@@]1(O)C(=O)OCc2c1cc1n(c2=O)Cc2cc3c(CN(C)C)c(O)ccc3nc2-1 [Topotecan] | 72% | 49.7% | 12.3% | – | – | – | – | – | – | – | activation at 0.08 µM [1, 15]: -46.4%; activation at 0.4 µM [1, 14]: -124%
CN(C)CCOc1ccc(/C(=C(/CCCl)c2ccccc2)c2ccccc2)cc1 [Toremifene, reference compound] | – | – | – | – | – | 174% | 57.8% | 9.9% | -169% | – | activation at 0.4 µM [1, 16]: 74.9%; EC50 ([1]; Rattus norvegicus, average EC50 for induction of OL differentiation from independent biological replicates, eight concentrations): 0.1 µM; hit in OL differentiation assay, MRF-TMC ([1]; ● = confirmed hit in this paper's assay): ●
Cc1cccc(Nc2ccncc2S(=O)(=O)NC(=O)NC(C)C)c1 [Torsemide] | 90.5% | 88.3% | 93.4% | 31.2% | -6.1% | – | – | – | – | – | –
NC1CCN(c2nc3c(cc2F)c(=O)c(C(=O)O)cn3-c2ccc(F)cc2F)C1 (centres unmarked) [Tosufloxacin] | 95.4% | 104% | 92.2% | -17.9% | -6.5% | – | – | – | – | – | –
COc1cccc(C2(O)CCCCC2CN(C)C)c1 (centres unmarked) [Tramadol] | – | – | – | – | – | 100% | 107% | 96.7% | -1.7% | -9.7% | –

Compound | viability at 0.1 µM (expanded OPCs; [2]) | viability at 1 µM (expanded OPCs; [3]) | viability at 10 µM (expanded OPCs; [4]) | activation at 2 µM [1, 5] | activation at 10 µM [1, 6] | viability at 0.1 µM (expanded OPCs; [7]) | viability at 1 µM (expanded OPCs; [8]) | viability at 10 µM (expanded OPCs; [9]) | activation at 2 µM [1, 10] | activation at 10 µM [1, 11] | other results
COc1ccc(/C=C/C(=O)Nc2ccccc2C(=O)O)cc1OC [Tranilast] | 90.5% | 90% | 85.8% | 5.9% | -18.5% | – | – | – | – | – | –
O=c1n(CCCN2CCN(c3cccc(Cl)c3)CC2)nc2ccccn12 [Trazodone] | 90.8% | 78.9% | 84.9% | -7.5% | 55% | – | – | – | – | – | –
O=C(O[C@H]1[C@H](Oc2ccccc2COC(=O)C2(O)C=CCCC2=O)O[C@H](CO)[C@@H](O)[C@@H]1O)c1ccccc1 (some centres unmarked) [Tremulacin] | – | – | – | – | – | 86.6% | 85.4% | 20.7% | -176% | – | activation at 0.4 µM [1, 16]: -46.7%
CC1(C)O[C@@H]2C[C@H]3[C@@H]4CCC5=CC(=O)C=C[C@]5(C)[C@@]4(F)[C@@H](O)C[C@]3(C)[C@]2(C(=O)CO)O1 [Triamcinolone Acetonide] | – | – | – | – | – | 133% | 127% | 127% | -1.9% | 1.9% | –
Nc1nc(N)c2nc(-c3ccccc3)c(N)nc2n1 [Triamterene] | – | – | – | – | – | 94.9% | 96.5% | 95.3% | 0.9% | -18.8% | –
CSc1nc2cc(Cl)c(Oc3cccc(Cl)c3Cl)cc2[nH]1 [Triclabendazole] | 96.9% | 131% | 11.1% | -46.6% | – | – | – | – | – | – | activation at 0.4 µM [1, 14]: -13.1%
Oc1cc(Cl)ccc1Oc1ccc(Cl)cc1Cl [Triclosan] | – | – | – | – | – | – | – | – | – | – | 0.1 µM (% DMSO) (expanded OPCs): 100.2 % DMSO; 1 µM (% DMSO) (expanded OPCs): 117.5 % DMSO; 10 µM (% DMSO) (expanded OPCs): 9.2 % DMSO; activation at 0.4 µM [1, 16]: 8.6%
OC(CCN1CCCCC1)(c1ccccc1)C1CCCCC1 (centres unmarked) [Trihexyphenidyl] | – | – | – | – | – | – | – | – | – | – | 0.1 µM (% DMSO) (expanded OPCs): 90.6 % DMSO; 1 µM (% DMSO) (expanded OPCs): 84.6 % DMSO; 10 µM (% DMSO) (expanded OPCs): 67.7 % DMSO; activation at 2 µM [1, 12]: -19.1%; activation at 10 µM [1, 13]: -45.6%
N[C@@H](Cc1cc(I)c(Oc2ccc(O)c(I)c2)c(I)c1)C(=O)O [Triiodothyronine] | – | – | – | – | – | – | – | – | -36.3% | -37.8% | 0.1 µM (% DMSO) (expanded OPCs): 237.5 % DMSO; 1 µM (% DMSO) (expanded OPCs): 217.6 % DMSO; 10 µM (% DMSO) (expanded OPCs): 207.1 % DMSO
CCC(COC(=O)c1cc(OC)c(OC)c(OC)c1)(c1ccccc1)N(C)C (centres unmarked) [Trimebutine] | 113% | 135% | 147% | 31.4% | -25.8% | – | – | – | – | – | –
COc1cc(Cc2cnc(N)nc2N)cc(OC)c1OC [Trimethoprim] | – | – | – | – | – | – | – | – | -30.5% | -40.8% | 0.1 µM (% DMSO) (expanded OPCs): 93.8 % DMSO; 1 µM (% DMSO) (expanded OPCs): 89.7 % DMSO; 10 µM (% DMSO) (expanded OPCs): 86.5 % DMSO
CN(C)CCN(Cc1ccccc1)c1ccccn1 [Tripelennamine] | 82.9% | 86.1% | 80.7% | 8.2% | 31.1% | – | – | – | – | – | –
CC(C)[C@]12O[C@H]1[C@@H]1O[C@]13[C@]1(O[C@H]1C[C@H]1C4=C(CC[C@@]13C)C(=O)OC4)[C@@H]2O [Triptolide] | 73.9% | 13.2% | 13.7% | – | – | – | – | – | – | – | activation at 0.08 µM [1, 15]: 3.9%; activation at 0.4 µM [1, 14]: -23.3%
CN1[C@@H]2CC[C@H]1C[C@@H](OC(=O)c1c[nH]c3ccccc13)C2 [Tropisetron] | 98.4% | 90.9% | 82.5% | 37.9% | 16.9% | – | – | – | – | – | –
COc1cc(C(=O)NC2CCCNC2)cc(OC)c1OC (centres unmarked) [Troxipide] | 102% | 115% | 109% | 18% | -6.8% | – | – | – | – | – | –
c1ccc2c3c([nH]c2c1)CNCC3 [Tryptoline] | – | – | – | – | – | 103% | 92.4% | 62.6% | -12.9% | -20.7% | –
